± gives the expanded uncertainty stated by the source.
Assay: mn = molality of the nth substance listed, in mol/kg
Conditions: 350 kPa, Liquid, Extra sensitive DSC

OC[C@H]1O[C@@H](O[C@H]2[C@H](O)[C@@H](O)[C@H](O)O[C@@H]2CO)[C@H](O)[C@@H](O)[C@@H]1O [D-cellobiose] + O
apparent molar heat capacity [J/K/mol]
Conditions | m1 = 0.03222 | m1 = 0.05175 | m1 = 0.07986 | m1 = 0.09996 | m1 = 0.1501 | m1 = 0.3084
278.15 K | 562.9 ± 33 | 563 ± 21 | 562 ± 14 | 561.2 ± 12 | 563 ± 8.4 | 566.4 ± 5
283.15 K | 593 ± 33 | 592.8 ± 21 | 591.5 ± 14 | 590.9 ± 12 | 592 ± 8.4 | 594.5 ± 5
288.15 K | 619.4 ± 33 | 618.8 ± 21 | 617.3 ± 14 | 616.9 ± 12 | 617.5 ± 8.5 | 619.6 ± 5.1
293.15 K | 641.7 ± 33 | 641.1 ± 21 | 639.4 ± 14 | 639.2 ± 12 | 639.5 ± 8.6 | 641.1 ± 5.2
298.15 K | 661.3 ± 33 | 660.7 ± 21 | 658.6 ± 14 | 658.8 ± 12 | 658.7 ± 8.6 | 660.1 ± 5.2
303.15 K | 678.3 ± 33 | 677.8 ± 21 | 675.4 ± 15 | 676.2 ± 12 | 675.7 ± 8.7 | 676.9 ± 5.3
308.15 K | 693.2 ± 33 | 692.9 ± 21 | 690.6 ± 15 | 691.5 ± 12 | 690.9 ± 8.7 | 691.8 ± 5.3
313.15 K | 706.5 ± 33 | 706.5 ± 22 | 704.1 ± 15 | 705 ± 12 | 704.3 ± 8.8 | 705.1 ± 5.4
318.15 K | 718.8 ± 33 | 718.9 ± 22 | 716.6 ± 15 | 717.5 ± 12 | 716.7 ± 8.8 | 717.3 ± 5.4
323.15 K | 730 ± 33 | 730.1 ± 22 | 728 ± 15 | 728.9 ± 12 | 728.1 ± 8.9 | 728.5 ± 5.4
328.15 K | 740.4 ± 33 | 740.7 ± 22 | 738.6 ± 15 | 739.5 ± 12 | 738.7 ± 8.9 | 739 ± 5.5
333.15 K | 750.3 ± 33 | 750.6 ± 22 | 748.6 ± 15 | 749.5 ± 12 | 748.7 ± 8.9 | 748.9 ± 5.5
338.15 K | 759.6 ± 33 | 759.9 ± 22 | 758 ± 15 | 758.9 ± 12 | 758.1 ± 8.9 | 758.3 ± 5.5
343.15 K | 768.2 ± 33 | 768.6 ± 22 | 766.7 ± 15 | 767.6 ± 12 | 766.7 ± 9 | 766.9 ± 5.6
348.15 K | 776.4 ± 33 | 776.6 ± 22 | 774.8 ± 15 | 775.8 ± 12 | 774.9 ± 9 | 775 ± 5.6
353.15 K | 783.8 ± 33 | 784.2 ± 22 | 782.5 ± 15 | 783.5 ± 12 | 782.6 ± 9 | 782.7 ± 5.6
358.15 K | 791.1 ± 33 | 791.5 ± 22 | 789.8 ± 15 | 790.8 ± 12 | 789.9 ± 9 | 789.9 ± 5.6
363.15 K | 797.8 ± 33 | 798.3 ± 22 | 796.7 ± 15 | 797.8 ± 12 | 796.8 ± 9.1 | 796.8 ± 5.6
368.15 K | 803.8 ± 34 | 804.6 ± 22 | 803 ± 15 | 804.1 ± 12 | 803.1 ± 9.1 | 803.1 ± 5.7
373.15 K | 809.8 ± 34 | 810.7 ± 22 | 809 ± 15 | 810.1 ± 12 | 809.2 ± 9.1 | 809.1 ± 5.7
378.15 K | 815 ± 34 | 816.2 ± 22 | 814.6 ± 15 | 815.8 ± 12 | 814.7 ± 9.1 | 814.7 ± 5.7
383.15 K | 819.8 ± 34 | 821.3 ± 22 | 819.7 ± 15 | 821.4 ± 12 | 820 ± 9.1 | 819.9 ± 5.7
388.15 K | 823 ± 34 | 825.3 ± 22 | 824.1 ± 15 | 827.6 ± 12 | 824.9 ± 9.1 | 824.8 ± 5.7
393.15 K | 826.1 ± 34 | 828.7 ± 22 | 827.9 ± 15 | 833 ± 12 | 829.1 ± 9.2 | 829.2 ± 5.7
